In paper PMC9133015 (Nature Communications, 2022):
Values joined by “and” are separate entries in the source; they are usually repeats but may differ in a detail not shown here. Identical values can stand only once.

What was measured:
Assay in all cases: Kinase inhibitor specificity profiling (Reaction Biology Corporation)
Type in all cases: biochemical
Design in all cases: % Enzyme Activity (relative to DMSO controls): concentration or dose not given beside the values
[1] = biological target: T1, panel of 370 protein kinases (Homo sapiens, UniProt Q99759); conditions: 2 h, kinase MEKK3; read-out: % Enzyme Activity (relative to DMSO controls)
T1 construct: purchased Reaction Biology Corporation (assay service)

[2] = biological target: T2, panel of 370 protein kinases (Homo sapiens, UniProt O14757); conditions: kinase CHK1
T2 construct: purchased Reaction Biology Corporation (assay service)

[3] = biological target: T3, panel of 370 protein kinases (Homo sapiens, UniProt Q9Y2K2); conditions: kinase SIK3
T3 construct: purchased Reaction Biology Corporation (assay service)

[4] = biological target: T4, panel of 370 protein kinases (Homo sapiens, UniProt Q14012); conditions: 2 h, kinase CAMK1a; read-out: % Enzyme Activity (relative to DMSO controls)
T4 construct: purchased Reaction Biology Corporation (assay service)

[5] = biological target: T5, panel of 370 protein kinases (Homo sapiens, UniProt O00311); conditions: 2 h, read-out: % Enzyme Activity (relative to DMSO controls), kinase CDC7/DBF4
T5 construct: purchased Reaction Biology Corporation (assay service)

[6] = biological target: T6, panel of 370 protein kinases (Homo sapiens, UniProt Q7L7X3); conditions: 2 h, kinase TAOK1; read-out: % Enzyme Activity (relative to DMSO controls)
T6 construct: purchased Reaction Biology Corporation (assay service)

[7] = biological target: T7, panel of 370 protein kinases (Homo sapiens, UniProt P16591); conditions: 2 h, kinase FER; read-out: % Enzyme Activity (relative to DMSO controls)
T7 construct: purchased Reaction Biology Corporation (assay service)

[8] = biological target: T8, panel of 370 protein kinases (Homo sapiens, UniProt Q92630); conditions: 2 h, kinase DYRK2; read-out: % Enzyme Activity (relative to DMSO controls)
T8 construct: purchased Reaction Biology Corporation (assay service)

[9] = biological target: T9, panel of 370 protein kinases (Homo sapiens, UniProt Q16620); conditions: 2 h, kinase TRKB; read-out: % Enzyme Activity (relative to DMSO controls)
T9 construct: purchased Reaction Biology Corporation (assay service)

[10] = biological target: T10, panel of 370 protein kinases (Homo sapiens, UniProt O15264); conditions: 2 h, kinase P38d/MAPK13; read-out: % Enzyme Activity (relative to DMSO controls)
T10 construct: purchased Reaction Biology Corporation (assay service)

[11] = biological target: T11, panel of 370 protein kinases (Homo sapiens, UniProt Q16513); conditions: 2 h, kinase PKN2/PRK2; read-out: % Enzyme Activity (relative to DMSO controls)
T11 construct: purchased Reaction Biology Corporation (assay service)

[12] = biological target: T12, panel of 370 protein kinases (Homo sapiens, UniProt Q07002); conditions: 2 h, kinase CDK18/cyclin Y (PCTK3); read-out: % Enzyme Activity (relative to DMSO controls)
T12 construct: purchased Reaction Biology Corporation (assay service)

[13] = biological target: T13, panel of 370 protein kinases (Homo sapiens, UniProt Q8WXR4); conditions: 2 h, kinase MYO3b; read-out: % Enzyme Activity (relative to DMSO controls)
T13 construct: purchased Reaction Biology Corporation (assay service)

[14] = biological target: T14, panel of 370 protein kinases (Homo sapiens, UniProt P54756); conditions: kinase EPHA5
T14 construct: purchased Reaction Biology Corporation (assay service)

[15] = biological target: T15, panel of 370 protein kinases (Homo sapiens, UniProt Q09013); conditions: 2 h, kinase DMPK; read-out: % Enzyme Activity (relative to DMSO controls)
T15 construct: purchased Reaction Biology Corporation (assay service)

[16] = biological target: T16, panel of 370 protein kinases (Homo sapiens, UniProt Q9UK32); conditions: kinase RSK4
T16 construct: purchased Reaction Biology Corporation (assay service)

[17] = biological target: T17, panel of 370 protein kinases (Homo sapiens, UniProt Q9BUB5); conditions: 2 h, kinase MNK1; read-out: % Enzyme Activity (relative to DMSO controls)
T17 construct: purchased Reaction Biology Corporation (assay service)

[18] = biological target: T18, panel of 370 protein kinases (Homo sapiens, UniProt O00141); conditions: 2 h, kinase SGK1; read-out: % Enzyme Activity (relative to DMSO controls)
T18 construct: purchased Reaction Biology Corporation (assay service)

[19] = biological target: T19, panel of 370 protein kinases (Homo sapiens, UniProt P29376); conditions: 2 h, kinase TYK1/LTK; read-out: % Enzyme Activity (relative to DMSO controls)
T19 construct: purchased Reaction Biology Corporation (assay service)

[20] = biological target: T20, panel of 370 protein kinases (Homo sapiens, UniProt Q9Y6M4); conditions: kinase CK1G3
T20 construct: purchased Reaction Biology Corporation (assay service)

[21] = biological target: T21, panel of 370 protein kinases (Homo sapiens, UniProt O14965); conditions: 2 h, kinase Aurora A; read-out: % Enzyme Activity (relative to DMSO controls)
T21 construct: purchased Reaction Biology Corporation (assay service)

[22] = biological target: T22, panel of 370 protein kinases (Homo sapiens, UniProt Q9HBY8); conditions: 2 h, kinase SGK2; read-out: % Enzyme Activity (relative to DMSO controls)
T22 construct: purchased Reaction Biology Corporation (assay service)

T20 sequence (Q9Y6M4 whole entry): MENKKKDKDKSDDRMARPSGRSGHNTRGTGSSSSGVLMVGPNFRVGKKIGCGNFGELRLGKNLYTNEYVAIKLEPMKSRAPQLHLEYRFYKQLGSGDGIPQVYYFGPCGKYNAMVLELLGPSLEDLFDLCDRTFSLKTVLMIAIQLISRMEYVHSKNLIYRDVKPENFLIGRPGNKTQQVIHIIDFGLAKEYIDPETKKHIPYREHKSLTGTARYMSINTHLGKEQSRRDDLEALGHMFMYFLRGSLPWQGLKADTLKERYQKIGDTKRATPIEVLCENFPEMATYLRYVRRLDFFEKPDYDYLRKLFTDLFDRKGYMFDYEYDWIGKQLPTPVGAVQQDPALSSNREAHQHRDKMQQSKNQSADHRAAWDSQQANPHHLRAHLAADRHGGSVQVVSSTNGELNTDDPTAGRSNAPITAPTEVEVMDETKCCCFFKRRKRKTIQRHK
T3 sequence (Q9Y2K2 whole entry): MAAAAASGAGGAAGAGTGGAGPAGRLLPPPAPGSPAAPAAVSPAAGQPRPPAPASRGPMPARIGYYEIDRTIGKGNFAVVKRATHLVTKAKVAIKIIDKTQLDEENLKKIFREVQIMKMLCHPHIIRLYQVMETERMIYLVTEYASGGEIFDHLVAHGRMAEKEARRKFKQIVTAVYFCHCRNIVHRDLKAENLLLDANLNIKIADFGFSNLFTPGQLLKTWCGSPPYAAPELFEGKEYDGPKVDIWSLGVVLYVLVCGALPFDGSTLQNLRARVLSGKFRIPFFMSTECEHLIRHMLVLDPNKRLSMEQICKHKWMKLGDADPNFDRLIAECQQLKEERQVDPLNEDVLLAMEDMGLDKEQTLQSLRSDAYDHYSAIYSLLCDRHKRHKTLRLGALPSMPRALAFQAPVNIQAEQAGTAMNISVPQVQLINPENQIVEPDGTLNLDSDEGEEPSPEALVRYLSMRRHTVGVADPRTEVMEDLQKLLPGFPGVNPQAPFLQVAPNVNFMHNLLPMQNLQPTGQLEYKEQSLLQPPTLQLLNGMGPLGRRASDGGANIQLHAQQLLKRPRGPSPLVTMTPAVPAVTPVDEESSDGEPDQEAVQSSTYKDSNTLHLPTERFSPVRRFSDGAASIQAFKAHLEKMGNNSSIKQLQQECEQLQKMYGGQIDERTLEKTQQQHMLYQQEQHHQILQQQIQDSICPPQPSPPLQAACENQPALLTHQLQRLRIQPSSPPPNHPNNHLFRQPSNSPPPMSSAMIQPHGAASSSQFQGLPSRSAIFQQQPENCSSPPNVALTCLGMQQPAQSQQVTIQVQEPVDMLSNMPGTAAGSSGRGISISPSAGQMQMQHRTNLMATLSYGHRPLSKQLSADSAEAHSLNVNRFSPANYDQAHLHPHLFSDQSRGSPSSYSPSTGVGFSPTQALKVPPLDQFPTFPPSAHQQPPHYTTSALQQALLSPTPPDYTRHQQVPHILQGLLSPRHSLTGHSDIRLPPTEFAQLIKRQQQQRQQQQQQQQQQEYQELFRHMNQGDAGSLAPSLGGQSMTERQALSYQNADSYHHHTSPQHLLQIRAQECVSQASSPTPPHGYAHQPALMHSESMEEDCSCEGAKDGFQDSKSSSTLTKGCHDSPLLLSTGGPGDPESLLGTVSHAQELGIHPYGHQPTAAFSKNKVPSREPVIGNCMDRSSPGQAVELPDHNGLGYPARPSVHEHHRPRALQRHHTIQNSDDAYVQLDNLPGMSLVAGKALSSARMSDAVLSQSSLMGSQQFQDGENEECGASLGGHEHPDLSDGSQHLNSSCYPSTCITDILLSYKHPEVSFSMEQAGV
T16 sequence (Q9UK32 whole entry): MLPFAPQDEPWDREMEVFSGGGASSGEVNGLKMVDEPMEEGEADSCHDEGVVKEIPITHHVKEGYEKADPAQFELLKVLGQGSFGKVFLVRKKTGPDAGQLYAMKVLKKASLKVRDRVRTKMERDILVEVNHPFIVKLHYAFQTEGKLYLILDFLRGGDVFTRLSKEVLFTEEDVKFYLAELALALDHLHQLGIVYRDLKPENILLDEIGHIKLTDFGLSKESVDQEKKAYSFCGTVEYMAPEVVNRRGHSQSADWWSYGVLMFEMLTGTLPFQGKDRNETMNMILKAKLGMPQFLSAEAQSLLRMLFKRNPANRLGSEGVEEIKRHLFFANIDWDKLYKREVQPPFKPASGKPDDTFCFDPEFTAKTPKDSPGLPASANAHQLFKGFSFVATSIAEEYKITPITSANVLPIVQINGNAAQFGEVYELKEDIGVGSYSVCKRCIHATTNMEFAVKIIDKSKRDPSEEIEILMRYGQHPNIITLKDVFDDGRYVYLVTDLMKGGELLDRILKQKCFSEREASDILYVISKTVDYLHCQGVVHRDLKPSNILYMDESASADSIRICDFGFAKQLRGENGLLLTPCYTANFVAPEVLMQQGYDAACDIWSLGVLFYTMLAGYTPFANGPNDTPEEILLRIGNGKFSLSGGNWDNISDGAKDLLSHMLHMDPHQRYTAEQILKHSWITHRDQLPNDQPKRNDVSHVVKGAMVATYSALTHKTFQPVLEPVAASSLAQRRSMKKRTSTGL
T14 sequence (P54756 25-1037): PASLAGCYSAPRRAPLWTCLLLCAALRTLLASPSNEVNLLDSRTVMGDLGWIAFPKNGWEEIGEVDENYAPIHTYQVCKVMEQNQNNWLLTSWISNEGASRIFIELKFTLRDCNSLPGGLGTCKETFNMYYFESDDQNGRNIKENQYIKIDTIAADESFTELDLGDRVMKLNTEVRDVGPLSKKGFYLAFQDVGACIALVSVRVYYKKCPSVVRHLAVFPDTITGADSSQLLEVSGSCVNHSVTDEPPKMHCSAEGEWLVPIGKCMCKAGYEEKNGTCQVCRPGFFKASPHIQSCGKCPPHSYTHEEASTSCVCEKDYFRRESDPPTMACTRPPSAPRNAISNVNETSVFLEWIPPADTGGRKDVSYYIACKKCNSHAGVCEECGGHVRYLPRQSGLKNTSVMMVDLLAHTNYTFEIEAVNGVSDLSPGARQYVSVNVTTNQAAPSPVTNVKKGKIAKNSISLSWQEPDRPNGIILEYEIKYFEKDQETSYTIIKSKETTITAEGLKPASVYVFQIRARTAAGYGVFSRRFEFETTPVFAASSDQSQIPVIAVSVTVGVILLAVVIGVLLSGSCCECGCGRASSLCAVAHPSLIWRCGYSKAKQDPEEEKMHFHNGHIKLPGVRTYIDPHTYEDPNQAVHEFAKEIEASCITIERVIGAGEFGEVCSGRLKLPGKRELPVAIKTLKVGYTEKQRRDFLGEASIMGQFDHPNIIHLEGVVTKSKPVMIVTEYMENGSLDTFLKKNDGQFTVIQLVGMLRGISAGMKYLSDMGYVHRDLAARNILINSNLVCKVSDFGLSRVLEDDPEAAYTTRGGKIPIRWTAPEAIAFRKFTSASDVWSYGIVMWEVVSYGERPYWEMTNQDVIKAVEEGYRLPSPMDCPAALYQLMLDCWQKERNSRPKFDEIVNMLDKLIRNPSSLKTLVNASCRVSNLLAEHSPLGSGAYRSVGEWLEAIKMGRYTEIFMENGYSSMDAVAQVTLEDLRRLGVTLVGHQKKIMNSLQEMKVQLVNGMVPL
T2 sequence (O14757 whole entry): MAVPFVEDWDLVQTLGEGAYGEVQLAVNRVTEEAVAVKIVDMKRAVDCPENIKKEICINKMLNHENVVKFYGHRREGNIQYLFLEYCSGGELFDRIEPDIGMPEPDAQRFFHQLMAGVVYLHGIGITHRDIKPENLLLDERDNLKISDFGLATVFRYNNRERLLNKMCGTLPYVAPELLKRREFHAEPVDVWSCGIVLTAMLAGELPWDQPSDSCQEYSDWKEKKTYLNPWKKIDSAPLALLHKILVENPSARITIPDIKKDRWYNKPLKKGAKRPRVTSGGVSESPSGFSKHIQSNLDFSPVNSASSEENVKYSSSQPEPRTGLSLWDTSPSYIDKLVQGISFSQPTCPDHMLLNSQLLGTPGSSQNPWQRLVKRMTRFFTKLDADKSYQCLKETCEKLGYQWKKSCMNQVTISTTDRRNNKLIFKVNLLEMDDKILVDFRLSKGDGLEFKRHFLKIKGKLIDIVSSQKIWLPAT
T9 sequence (Q16620 32-822): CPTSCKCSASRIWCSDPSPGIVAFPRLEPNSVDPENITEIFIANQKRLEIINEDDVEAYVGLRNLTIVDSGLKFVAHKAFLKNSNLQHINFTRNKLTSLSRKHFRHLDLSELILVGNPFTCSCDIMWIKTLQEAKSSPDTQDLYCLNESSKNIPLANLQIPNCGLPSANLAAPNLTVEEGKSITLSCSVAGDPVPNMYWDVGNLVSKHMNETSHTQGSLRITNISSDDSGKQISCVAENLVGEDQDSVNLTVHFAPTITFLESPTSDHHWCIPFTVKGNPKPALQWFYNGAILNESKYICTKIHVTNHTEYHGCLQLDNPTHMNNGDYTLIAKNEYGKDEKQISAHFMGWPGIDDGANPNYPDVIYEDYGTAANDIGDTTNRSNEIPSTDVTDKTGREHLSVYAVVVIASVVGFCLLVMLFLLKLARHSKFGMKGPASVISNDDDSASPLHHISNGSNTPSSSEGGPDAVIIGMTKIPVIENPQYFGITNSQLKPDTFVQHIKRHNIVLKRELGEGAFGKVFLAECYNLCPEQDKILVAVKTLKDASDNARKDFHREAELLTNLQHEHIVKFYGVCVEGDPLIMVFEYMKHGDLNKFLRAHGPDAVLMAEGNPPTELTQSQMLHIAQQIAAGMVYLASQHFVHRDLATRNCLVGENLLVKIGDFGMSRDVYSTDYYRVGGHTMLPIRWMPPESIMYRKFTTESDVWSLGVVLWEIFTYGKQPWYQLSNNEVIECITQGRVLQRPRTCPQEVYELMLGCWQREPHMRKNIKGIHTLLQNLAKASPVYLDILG

CCN1CCN(C(=O)c2ccc(Nc3ncc(F)c(-c4ccc5nc(N(C)C)sc5c4)n3)nc2)CC1 [YK-2-69]
remaining activity at 1 µM [1]: 106% | % Enzyme Activity (relative to DMSO controls) [2]: 90.61% and 88.71% | % Enzyme Activity (relative to DMSO controls) [3]: 100.12% and 97.59% | remaining activity at 1 µM [4]: 101% | remaining activity at 1 µM [5]: 121% | remaining activity at 1 µM [6]: 108% | remaining activity at 1 µM [7]: 106% | remaining activity at 1 µM [8]: 5.23% | remaining activity at 1 µM [9]: 88.6% | remaining activity at 1 µM [10]: 102% | remaining activity at 1 µM [11]: 88.4% | remaining activity at 1 µM [12]: 99.1% | remaining activity at 1 µM [13]: 106% | % Enzyme Activity (relative to DMSO controls) [14]: 97.73% and 95.85% | remaining activity at 1 µM [15]: 95.8% | % Enzyme Activity (relative to DMSO controls) [16]: 87.21% and 86.27% | remaining activity at 1 µM [17]: 89.6% | remaining activity at 1 µM [18]: 60.9% | remaining activity at 1 µM [19]: 109% | % Enzyme Activity (relative to DMSO controls) [20]: 114.34% and 110.21% | remaining activity at 1 µM [21]: 80.6% | remaining activity at 1 µM [22]: 97.5%
